These results are taken from patent US8097241B2, “Formulation and method for treating animal waste” (priority 2007, dated 2012).

Assay [1] is described as follows: Rate of disintegration of animal waste: time to a uniformly distributed suspension under magnetic stirring. Also noted: species or system dog. To be noted: about 5 g waste, 90.0 g water, stirring about 90 rpm; water alone 16 minutes. The procedure: 1. The selected amount of feces was weighed out with the accuracy of 10 mg. All the samples had the same mass within 200 milligrams.
2. […]
3. The mixture was mixed at specific rate (about 90 rpm) using a magnetic bar inside the solution and a magnetic stirrer. The amount of time necessary to produce a uniformly distributed suspension was measured.

Assay [2] in a line: Rate of malodor disappearance from dog waste stirred at 40° C. Conditions: oxidizing agent added to the formulation or as aqueous solution. Here is the method: 1. The specific amount of feces was weighed (about 4.0 g; accuracy of 1 mg) out and transferred to the 200 mL beaker.
2. 100.0 g of aqueous solution containing either no additives or the selected ones weighed at the same balance (accuracy of 1 mg) was added to the beaker.
3. The sample was located on a hot plate and stirred magnetically at 40° C. in the fume hood.
4. The samples were checked for the released smell every few minutes.
50.0 mL of deionized water containing selected quantities of detergent, pH affecting agent and protease (same concentration as in the formulation divided by 50 since this is the planned dilution with water), pH affecting agent and protease • a. no additives • b. Cola Lipid (0.20 g); protease (Alcalase 3.0T, 0.008 g), sodium perborate tetrahydrate (0.012 g), citric acid (to adjust pH to about 3.0), • c. Cola Lipid (0.20 g); protease (Alcalase 3.0T, 0.008 g), sodium perborate tetrahydrate (0.012 g), sodium hydrogen carbonate (to adjust pH to about 10.0), • d. Cola Lipid (0.20 g); protease (Alcalase 3.0T, 0.008 g), 5% hydrogen peroxide (0.100 g), citric acid (to adjust pH to about 3.0) was added to 3.00 g of the dog waste. The mixtures were located in the fume hood, heated on the hot plate to 40° C. and stirred magnetically. […] The malodor of the sample “a” disappeared after about 30 minutes.

In another assay the test system is animal waste bio-burden. In words: Lowering of animal waste bio-burden: dog waste homogenised with additives, serially diluted, plated on agar, CFUs counted. It counts as cell-based. The procedure: 1. A specific amount of a dog waste weighed with the accuracy of 1 mg (usually between 3 and 7 g) was transferred into the sterilized homogenizer. In a set of experiments performed on a given day the mass of all the samples were the same within 20.0 mg.
2. All the required additives were weighed out using the same balance and introduced into a specific amount of deionized, freshly boiled (but cooled to room temperature) water (usually between 50.0 g and 100.0 g) in the sterilized Erlenmeyer flask.
3. Next, the aqueous solution of additives was transformed into the homogenizer.
4. The mixture was mixed at low (18,000 RPM) for a specific amount of time (usually 30 seconds).
5. The resulting suspension was transferred to the sterilized Erlenmeyer flask and gradually diluted 10 times in several subsequent dilution steps. Initially, 5.0 mL of the non-diluted solution was added to 45.0 mL of deionized, freshly boiled water. The Eppendorf pipettes were used for further dilutions and in each case […] of the previous sample after vortex was added to 0.900 mL of deionized, freshly boiled water in a sterile vial. Usually, 6 or 7 dilutions were performed. In every set of experiments one sample consisted of the feces and water only. All the results were measured against this sample.
6. […]
8. Next, each sample was counted to determine the number of CFUs (colony forming units).

For `CCCCCCCCCCCCOS(=O)(=O)[O-].[Na+]` [Sodium dodecyl sulfate, sodium dodecyl sulfate], the “Time until feces disintegration” value in assay [1] is 1 min. In the case of `CCCCCCCC/C=C\CCCCCCCC(=O)OCCOCC(OCCO)C1OCC(OCCO)C1OCCO` (stereo not shown) [Tween 80, polysorbate 80], in assay [1], the “Time until feces disintegration” value was 2 min. For `O=C(OO)c1cccc(Cl)c1` [metachloroperbenzoic acid (MCPBA), metachloroperbenzoic acid], the “reduction of malodor of feces, in words” value in assay [2] is “destroy the malodor very effectively”. As for `O.O.O.O=BO[O-].[Na+]` [sodium perborate trihydrate], the “reduction of malodor of feces, in words” value in assay [2] is “significantly reduced malodours”.

For the compound “cocamidopropyl PG-dimonium chloride phosphate [Cola lipid]”, the “effect of added citric acid on antimicrobial activity” value with animal waste bio-burden (formulation of Table 3 against the same formulation without citric acid) is “significantly enhanced the antimicrobial activity”. The “antimicrobial activity, comparison in words” value in the assay with animal waste bio-burden (treating animal waste) is given as “significantly better antimicrobial activity”. Moreover, the “Time until feces disintegration” value in assay [1] worked out at 1 min. As to octoxynol [Triton X100], the “Time until feces disintegration” value in assay [1] was 4 min. In the case of sodium perborate, the “reduction of malodor of feces, in words” value in assay [2] is “destroy the malodor very effectively”; in assay [2] (listed as Sodium perborate) it was “effectively minimizes the malodor of feces”.
